Experimental data published in patent US9108930B2, “N1- and N2-carbamoyl-1,2,3-triazole serine hydrolase inhibitors and methods” (The Scripps Research Institute, priority 2011, dated 2015).
Where “and” joins values, the source holds several entries; their conditions need not be identical. Equal entries are not always repeated.

Tests used:
APEH = target: T1, APEH (Mus musculus, UniProt Q8R146); assay: Gel-based competitive ABPP, mouse T-cell proteome in vitro; format: biochemical
T1 sequence (Q8R146 1-732): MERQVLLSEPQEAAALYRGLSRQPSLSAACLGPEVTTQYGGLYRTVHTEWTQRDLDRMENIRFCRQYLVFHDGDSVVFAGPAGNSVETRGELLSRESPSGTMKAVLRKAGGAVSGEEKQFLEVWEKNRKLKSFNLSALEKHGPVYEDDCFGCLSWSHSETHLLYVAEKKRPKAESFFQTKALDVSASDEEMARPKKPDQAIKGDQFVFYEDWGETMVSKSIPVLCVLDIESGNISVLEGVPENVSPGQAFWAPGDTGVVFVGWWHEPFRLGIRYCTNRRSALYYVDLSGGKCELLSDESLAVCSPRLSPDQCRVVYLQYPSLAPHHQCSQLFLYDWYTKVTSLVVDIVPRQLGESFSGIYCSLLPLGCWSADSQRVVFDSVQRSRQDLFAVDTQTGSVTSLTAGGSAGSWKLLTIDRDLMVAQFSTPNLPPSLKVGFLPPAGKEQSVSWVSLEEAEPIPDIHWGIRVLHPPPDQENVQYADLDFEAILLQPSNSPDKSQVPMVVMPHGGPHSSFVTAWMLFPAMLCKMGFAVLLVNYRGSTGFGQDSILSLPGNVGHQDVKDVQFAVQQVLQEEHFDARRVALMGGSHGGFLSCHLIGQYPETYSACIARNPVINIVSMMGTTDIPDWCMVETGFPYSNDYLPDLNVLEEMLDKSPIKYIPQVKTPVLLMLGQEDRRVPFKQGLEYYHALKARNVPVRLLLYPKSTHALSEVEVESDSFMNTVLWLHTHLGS
Experimental: The carbamoyl triazole regioisomers were separated by gel chromatography and used for subsequent experiments. […] The compounds were screened at concentrations of 10 and 100 nM in mouse T-cell proteomes (FIG. 3e and FIG. 12).
Gel-based competitive ABPP experiments were performed as described previously. For competitive ABPP with FP-rhodamine, proteomes (1 mg/mL in PBS) were treated with FP-rhodamine (2 μM final concentration) in a […] total reaction volume. After 30 minutes at 25° C., the reactions were quenched with 2×SDS-PAGE loading buffer.
Proteomes were incubated with inhibitors for 30 minutes at 37° C. (in vitro) or for 4 h at 37° C. (in situ) at the indicated concentrations (n=3) prior to FP-rhodamine labeling. After SDS-PAGE and in-gel visualization, the percentage enzymatic activity remaining was determined by measuring the integrated optical intensity of the bands using IMAGER® software. IC50 values were determined from a dose-response curve generated using PRISM® software (GraphPad).

ABHD6 [1] = target: T2, ABHD6 (Mus musculus, UniProt Q8R2Y0); assay: ABPP-SILAM of brain tissue from treated mice; format: in vivo; design: from tissue; host or cells: thioglycolate-elicited peritoneal macrophages of mice; details: may not represent actual changes
T2 sequence (Q8R2Y0 1-336): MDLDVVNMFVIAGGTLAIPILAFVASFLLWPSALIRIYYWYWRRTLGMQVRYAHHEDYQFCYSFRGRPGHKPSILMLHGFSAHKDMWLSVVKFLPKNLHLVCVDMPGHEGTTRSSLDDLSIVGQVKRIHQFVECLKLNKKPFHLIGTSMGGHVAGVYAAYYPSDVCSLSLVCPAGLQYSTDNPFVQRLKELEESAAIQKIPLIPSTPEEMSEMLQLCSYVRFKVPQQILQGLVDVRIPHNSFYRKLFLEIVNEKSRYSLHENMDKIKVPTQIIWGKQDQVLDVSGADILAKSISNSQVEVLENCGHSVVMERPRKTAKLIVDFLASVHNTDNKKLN
Experimental: The potency and selectivity of 1,2,3-triazole ureas in vivo also was investigated. Mice were treated with the APEH inhibitor AA74-1 at various doses (0.2-1.6 mg/kg; PEG300 or 18:1:1 saline/ethanol/emulphor intraperitoneally) and sacrificed after 4 h. Brains and hearts were removed, homogenized, and analyzed by gel-based competitive ABPP. […] Finally, the possibility of extending ABPP-SILAC for the characterization of inhibitor selectivity in vivo was explored by taking advantage of recently described protocols for stable isotope labeling in mammals (SILAM). In this approach, brain tissues from vehicle- and AA74-1-treated mice were separately mixed with equivalent amounts of brain tissue from ‘heavy’ amino acid-fed mice, and the samples were then labeled with FP-biotin, enriched by avidin chromatography, analyzed by LC-MS, and SH activities quantified by measuring the ratio-of-ratios for observed peptide signals. […] The ratio-of-ratio signals for APEH indicated greater than 90% inhibition of this enzyme in AA74-1-treated animals (FIG. 5b, top), consistent with average spectral count values (14 and 1 spectral counts for APEH in vehicle-treated versus AA74-1-treated mice, respectively; FIG. 5b, bottom). […]
C57BL6 mice were labeled with ^15N. […] Brains were determined to be 95% labeled by mass spectrometry with ^15N and used for quantitative analysis. […]

ABHD6 [2] = target: T2, ABHD6; assay: In situ inhibition in Neuro2A cells, competitive ABPP; format: cell-based; details: 4 hours, same dose as used for DAGLB by KT109 and KT172
Experimental: For gel-based competitive ABPP studies, proteomes from cells treated in situ with inhibitor for 4 h at 37° C. at the indicated concentrations (n=3) were labeled with HT-01 (1 μM) for 30 min at 37° C. After quenching, SDS-PAGE, and in-gel visualization, the percentage of enzyme activity remaining was determined by measuring the integrated optical intensity of the bands using IMAGER® software. For LC-MS substrate assays, the percentage of enzyme activity remaining was determined by comparing the specific activity (amount of 2-AG formed per min per mg of proteome) of inhibitor with DMSO-treated samples. The IC50 values were determined from a dose-response curve generated using GraphPad PRISM® software.

With `CC(C)CC(O)(CC(C)C)c1cnn(C(=O)N2CCCC2)n1` [AA74-1] the “inhibition of APEH” value (APEH; 10 nM) was “completely inhibited APEH”, the IC50 (APEH; IC50 for APEH, in vitro, 30 minutes at 37° C., mouse) was 5 nM and 3 nM and the “partial inhibition of ABHD6 suggested by ratio-of-ratio signals” value (ABHD6 [1]) was 50-60%.
With `COc1ccc(-c2ccc(-c3cn(C(=O)N4CCCCC4c4ccccc4)nn3)cc2)cc1` (stereo not shown) [KT195] the “inactivation of ABHD6 in Neuro2A cells” value (ABHD6 [2]) was “completely inactivating ABHD6”.
